In patent US10882837B2, “Amide compounds and use thereof” (ALPHALA CO., LTD., priority 2017, dated 2021):

Assays:
[1] = molecular target: GCGR (Homo sapiens, UniProt P47871); assay: I125-glucagon binding assay (competition, GCGR membrane fractions); design: expressed in transfected cells; host or cells: CHO-K1; settings: for IC50: competition with I125-glucagon 0.0625 nM, membrane fractions from GCGR overexpressed CHO-K1 cells
Procedure: I^125-Glucagon Binding Assay
The binding affinity of each compound was evaluated by a competition assay with I^125-glucagon. GCGR membrane fractions were obtained from GCGR overexpressed CHO-K1 cells as a stock of 1 mg/ml concentration. To evaluate the IC50 of compounds binding to GCGR, GCGR membrane fractions were treated with compounds with a serial dilution. The membrane fractions were diluted to 7.5 microgram per well in 70 microliter assay buffer contained 50 mM Tris pH 7.4 and 0.5% (w/v) bovine serum albumin and added into 96 wells plate. The membrane fractions were then mixed with 10 microliter diluted compounds. After 5 minutes pre-incubation, 20 microliter I^125 labeled glucagon (Perkin Elmer) was added into each well at the final concentration of 0.0625 nM. The assay mixtures were incubated at 25° C. for 30 minutes and then transferred onto the Millipore Multiscreen GF/B Plate coated with 0.5% (w/v) Polyethyleneimine. The filter plate was washed with wash buffer contained 50 mM Tris pH 7.4 for 2 times, 300 microliter each time. The residual isotope was detected by Hidex CHAMELEON V micro-beta counter and the IC50 value of each compound binding to GCGR was calculated with non-linear regression.

[2] = molecular target: T1, glucagon receptor (GCGR) (Homo sapiens, UniProt P47871); assay: Glucagon cAMP inhibition assay (Cisbio cAMP Dynamic 2 HTRF); format: cell-based; settings: GCGR overexpressed CHO-K1 cells or human primary hepatocytes (not specified); glucagon at EC50
T1 construct: expressed in transfected cells; host or cells: CHO-K1
Procedure: Glucagon eAMP Inhibition Assay
Downstream secondary messenger eAMP induced by glucagon was detected by Cisbio cAMP Dynamic 2 kit. Testing compounds were each prepared as a dimethyl sulfoxide (DMSO) solution at the concentration of 10 mM. To evaluate the potency of compounds in inhibiting the cAMP production, glucagon receptor (GCGR) overexpressed CHO-K1 cells or human primary hepatocytes were treated with compounds with a serial dilution. The cells were re-suspended in Hank's Balanced Salt solution (HBSS) contained 0.1% (w/v) bovine serum albumin and 800 nM 3-isobutyl-1-methylxanthine (IBMX) and seeded into low volume, 384 wells white plate. The diluted compounds were then added into the plate for 30 minutes pre-incubation where the final DMSO concentration was 1%. The cells were stimulated with glucagon at the concentration equaled to EC50 (an indicium of the concentration of a drag that gives half-maximal response) for 30 minutes at room temperature. After incubation, lysis buffer contain cAMP antibody and fluorescence acceptor were added into each well for additional 60 minutes incubation. Results were recorded by Molecular Devices SpectraMax Paradigm with the HTRF Detection Cartridges and the IC50 value of each compound in inhibiting the cAMP production was calculated with non-linear regression based on the amount of cAMP production.

Chain of GCGR (P47871 26-477, species assumed): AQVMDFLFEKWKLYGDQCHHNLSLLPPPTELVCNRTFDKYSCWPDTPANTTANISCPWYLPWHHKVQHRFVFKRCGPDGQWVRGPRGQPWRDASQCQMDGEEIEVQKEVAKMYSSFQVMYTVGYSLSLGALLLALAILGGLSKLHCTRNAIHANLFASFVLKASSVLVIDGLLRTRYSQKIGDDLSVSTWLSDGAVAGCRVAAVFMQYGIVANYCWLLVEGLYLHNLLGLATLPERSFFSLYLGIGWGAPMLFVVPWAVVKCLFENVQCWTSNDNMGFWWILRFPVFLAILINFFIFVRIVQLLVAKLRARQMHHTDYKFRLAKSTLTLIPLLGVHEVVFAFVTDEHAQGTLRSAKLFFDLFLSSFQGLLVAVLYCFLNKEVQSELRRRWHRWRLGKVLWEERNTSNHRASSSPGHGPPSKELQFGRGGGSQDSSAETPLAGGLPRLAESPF
T1 sequence (P47871 26-477, species assumed): as above

Row | SMILES | IC50 [1] | IC50 [2] | inhibition at 30 µM ([1]; compound at 30 μM, read-out: percentage of inhibition (number in parenthesis in IC50 binding column))
1 | CCOC(=O)CCNC(=O)c1ccc(NC(CC(C)C)c2ccc(-c3nnc(-c4ccc(F)cc4)o3)cc2)cc1 (stereo not drawn) [Compound 1-27, ethyl 3-(4-((1-(4-(5-(4-fluorophenyl)-1,3,4-oxadiazol-2-yl)phenyl)-3-methylbutyl)amino)benzamido)propanoate] | > 30000 nM | 118 nM | –
2 | CCC(C)C(Nc1ccc(C(=O)NCCC(=O)O)cc1)c1ccc(-c2nnc(-c3ccc(F)cc3)o2)cc1 (stereo not drawn) [Compound 1-30, 3-(4-((1-(4-(5-(4-fluorophenyl)-1,3,4-oxadiazol-2-yl)phenyl)-2-methylbutyl)amino)benzamido)propanoic acid] | 347 nM | 3410 nM | –
3 | CCC(C)C(Nc1ccc(C(=O)NCCC(=O)O)cc1)c1ccc(-c2nnc(C(F)(F)F)o2)cc1 (stereo not drawn) [Compound 1-32] | 885 nM | 3480 nM | –
4 | CCOC(=O)CCNC(=O)c1ccc(N[C@@H](c2ccc(-c3nnc(C(F)(F)F)o3)cc2)C(C)CC)cc1 (stereo partly drawn) [Compound 1-35, ethyl 3-(4-(((1R)-2-methyl-1-(4-(5-(trifluoromethyl)-1,3,4-oxadiazol-2-yl)phenyl)butyl)amino)benzamido)propanoate] | > 30000 nM | 384 nM | –
5 | CCCCC(Nc1ccc(C(=O)NCCC(=O)OC)cc1)c1ccc(-c2nnc(-c3ccccn3)o2)cc1 (stereo not drawn) [Compound 1-38, methyl 3-(4-((1-(4-(5-(pyridin-2-yl)-1,3,4-oxadiazol-2-yl)phenyl)pentyl)amino)benzamido)propanoate] | 1580 nM | 80 nM | –
6 | CCOC(=O)CCNC(=O)c1ccc(N[C@H](c2ccc(-c3nnc(-c4ccccc4)o3)cc2)C(C)C)cc1 [Compound 1-39, (S)-ethyl 3-(4-(2-methyl-1-(4-(5-phenyl-1,3,4-oxadiazol-2-yl)phenyl)propylamino)benzamido)propanoate] | 2850 nM | 40.3 nM | –
7 | CCOC(=O)CCNC(=O)c1ccc(N[C@@H](c2ccc(-c3nnc(-c4ccccc4)o3)cc2)C(C)C)cc1 [Compound 1-40, (R)-ethyl 3-(4-(2-methyl-1-(4-(5-phenyl-1,3,4-oxadiazol-2-yl)phenyl)propylamino)benzamido)propanoate] | > 30000 nM | 162 nM | –
8 | CCCC[C@H](Nc1ccc(C(=O)NCCC(=O)OCC)cc1)c1ccc(-c2nnc(-c3ccccn3)o2)cc1 [Compound 1-43, ethyl (S)-3-(4-((1-(4-(5-(pyridin-2-yl)-1,3,4-oxadiazol-2-yl)phenyl)pentyl)amino)benzamido)propanoate] | 1480 nM | 46.4 nM | –
9 | CCOC(=O)CCNC(=O)c1ccc(N[C@H](c2ccc(-c3nnc(-c4ccccc4)o3)cc2)C(C)CC)cc1 (stereo partly drawn) [Compound 1-47, ethyl 3-(4-(((1S)-2-methyl-1-(4-(5-phenyl-1,3,4-oxadiazol-2-yl)phenyl)butyl)amino)benzamido)propanoate] | 226 nM | 37 nM | 28%
10 | CCOC(=O)CCNC(=O)c1ccc(N[C@@H](c2ccc(-c3nnc(-c4ccccc4)o3)cc2)C(C)CC)cc1 (stereo partly drawn) [Compound 1-48, ethyl 3-(4-(((1R)-2-methyl-1-(4-(5-phenyl-1,3,4-oxadiazol-2-yl)phenyl)butyl)amino)benzamido)propanoate] | > 30000 nM | 164 nM | –
11 | CCCC[C@H](Nc1ccc(C(=O)NCCC(=O)OCC)cc1)c1ccc(-c2nnc(C(F)(F)F)o2)cc1 [Compound 1-51, ethyl (S)-3-(4-((1-(4-(5-(trifluoromethyl)-1,3,4-oxadiazol-2-yl)phenyl)pentyl)amino)benzamido)propanoate] | 6170 nM | 33.9 nM | –
12 | CCCC[C@@H](Nc1ccc(C(=O)NCCC(=O)OCC)cc1)c1ccc(-c2nnc(C(F)(F)F)o2)cc1 [Compound 1-52, ethyl (R)-3-(4-((1-(4-(5-(trifluoromethyl)-1,3,4-oxadiazol-2-yl)phenyl)pentyl)amino)benzamido)propanoate] | > 30000 nM | 439 nM | –

Next, values leading:

Row | IC50 [1] | IC50 [2] | inhibition at 30 µM ([1]; compound at 30 μM, read-out: percentage of inhibition (number in parenthesis in IC50 binding column)) | SMILES
13 | 563 nM | 4760 nM | – | CC(C)CC(Nc1ccc(C(=O)NCCC(=O)O)cc1)c1ccc(-c2nnc(-c3ccc(F)cc3)o2)cc1 (stereo not drawn) [Compound 1-28, 3-(4-((1-(4-(5-(4-fluorophenyl)-1,3,4-oxadiazol-2-yl)phenyl)-3-methylbutyl)amino)benzamido)propanoic acid]
14 | 4720 nM | 114 nM | – | CCOC(=O)CCNC(=O)c1ccc(NC(c2ccc(-c3nnc(-c4ccc(F)cc4)o3)cc2)C(C)CC)cc1 (stereo not drawn) [Compound 1-29, ethyl 3-(4-((1-(4-(5-(4-fluorophenyl)-1,3,4-oxadiazol-2-yl)phenyl)-2-methylbutyl)amino)benzamido)propanoate]
15 | > 30000 nM | 88 nM | – | CCOC(=O)CCNC(=O)c1ccc(NC(c2ccc(-c3nnc(C(F)(F)F)o3)cc2)C(C)CC)cc1 (stereo not drawn) [Compound 1-31, ethyl 3-(4-((2-methyl-1-(4-(5-(trifluoromethyl)-1,3,4-oxadiazol-2-yl)phenyl)butyl)amino)benzamido)propanoate]
16 | > 30000 nM | 142 nM | – | CCCCC(Nc1ccc(C(=O)NCCC(=O)OCC)cc1)c1ccc(-c2nnc(C(F)(F)F)o2)cc1 (stereo not drawn) [Compound 1-33, ethyl 3-(4-((1-(4-(5-(trifluoromethyl)-1,3,4-oxadiazol-2-yl)phenyl)pentyl)amino)benzamido)propanoate]
17 | 16100 nM | 42 nM | – | CCOC(=O)CCNC(=O)c1ccc(N[C@H](c2ccc(-c3nnc(C(F)(F)F)o3)cc2)C(C)CC)cc1 (stereo partly drawn) [Compound 1-34, ethyl 3-(4-(((1S)-2-methyl-1-(4-(5-(trifluoromethyl)-1,3,4-oxadiazol-2-yl)phenyl)butyl)amino)benzamido)propanoate]
18 | 359 nM | 2040 nM | – | CCC(C)[C@H](Nc1ccc(C(=O)NCCC(=O)O)cc1)c1ccc(-c2nnc(C(F)(F)F)o2)cc1 (stereo partly drawn) [Compound 1-36, 3-(4-(((1S)-2-methyl-1-(4-(5-(trifluoromethyl)-1,3,4-oxadiazol-2-yl)phenyl)butyl)amino)benzamido)propanoic acid]
19 | 1640 nM | 3260 nM | – | CCC(C)[C@@H](Nc1ccc(C(=O)NCCC(=O)O)cc1)c1ccc(-c2nnc(C(F)(F)F)o2)cc1 (stereo partly drawn) [Compound 1-37, 3-(4-(((1R)-2-methyl-1-(4-(S-(trifluoromethyl)-1,3,4-oxadiazol-2-yl)phenyl)butyl)amino)benzamido)propanoic acid]
20 | 107 nM | 2710 nM | – | CC(C)[C@H](Nc1ccc(C(=O)NCCC(=O)O)cc1)c1ccc(-c2nnc(-c3ccccc3)o2)cc1 [Compound 1-41, (S)-3-(4-(2-methyl-1-(4-(5-phenyl-1,3,4-oxadiazol-2-yl)phenyl)propylamino)benzamido)propanoic acid]
21 | 2920 nM | 2930 nM | – | CC(C)[C@@H](Nc1ccc(C(=O)NCCC(=O)O)cc1)c1ccc(-c2nnc(-c3ccccc3)o2)cc1 [Compound 1-42, (R)-3-(4-(2-methyl-1-(4-(5-phenyl-1,3,4-oxadiazol-2-yl)phenyl)propylamino)benzamido)propanoic acid]
22 | > 30000 nM | 830 nM | – | CCCC[C@@H](Nc1ccc(C(=O)NCCC(=O)OCC)cc1)c1ccc(-c2nnc(-c3ccccn3)o2)cc1 [Compound 1-44, ethyl (R)-3-(4-((1-(4-(5-(pyridin-2-yl)-1,1,3,4-oxadiazol-2-yl)phenyl)pentyl)amino)benzamido propanoate]
23 | 339 nM | 2540 nM | – | CCCC[C@H](Nc1ccc(C(=O)NCCC(=O)O)cc1)c1ccc(-c2nnc(-c3ccccn3)o2)cc1 [Compound 1-45, (S)-3-(4-((1-(4-(5-(pyridin-2-yl)-1,3,4-oxadiazol-2yl)phenyl)pentyl)amino)benzamido)propanoic acid]
24 | 702 nM | > 30000 nM | – | CCCC[C@@H](Nc1ccc(C(=O)NCCC(=O)O)cc1)c1ccc(-c2nnc(-c3ccccn3)o2)cc1 [Compound 1-46]
25 | 82 nM | 2730 nM | – | CCC(C)[C@@H](Nc1ccc(C(=O)NCCC(=O)O)cc1)c1ccc(-c2nnc(-c3ccccc3)o2)cc1 (stereo partly drawn) [Compound 1-50, 3-(4-(((1R)-2-methyl-1-(4-(5-phenyl-2,3,4-oxadiazol-2-yl)phenyl)butyl)amino)benzamido)propanoic acid]
